Assay results reported in patent publication US10738281B2, “Reprogramming cells” (The Scripps Research Institute, priority 2010, dated 2020).

Columns and labels:
[1] = tested on: Human Umbilical Vein Endothelial Cells (HUVECs); assay: Reprogramming of four factor-transduced HUVECs using metabolism modulating compounds; conditions: four factor (Klf, Sox, Myc, Oct)-transduced HUVECs, 20,000 cells per well, three weeks; DNP 1 μM, NOG 1 μM, QC 1 μM, OA 10 μM, F2,6P 10 mM
Experimental: (§1) Four factor (Klf, Sox, Myc, and Oct)-transduced HUVECs were seeded at a density of 20,000 transduced cells per well, treated with metabolism modulating compounds for three weeks and TRA-1-81 positive colonies were counted. F2,6P, 10 mM Fructose 2,6-bisphosphate; F6P, 10 mM Fructose 6-phosphate; 6-AN, 10 μM 6-aminonicotinamide; OA, 10 μM oxalate; DNP, 1 μM 2,4-dinitrophenol; NOG, 1 μM N-oxalylglycine; QC, 1 μM Quercetin; 2-HA, 10 μM 2-Hydroxyglutaric acid; NA, 10 μM nicotinic acid; DMSO was used as a control.

[2] = tested on: Neonatal Human Epidermal Keratinocytes (NHEKs); assay: Reprogramming of transduced NHEKs to iPSCs, TRA-1-81 positive colonies; conditions: for reprogramming of NHEKs, TRA-1-81 positive colonies (in words): three factor (Klf, Sox, Oct)-transduced NHEKs, 100,000 cells per well, four weeks, 2-DG 10 mM
Experimental: The culture was split by Accutase (Millipore) and treated with 1 μM Thiazovivin (Stemgent) in the first day after splitting.

NHEKs = assay: Lactate production in the medium as index of glycolysis (Lactate Assay Kit); conditions: NHEKs treated 8 d with PS48, PS48 and UCN-01, or PS48 and 2-DG
Experimental: as §1

[3] = tested on: GLUT1, HK2, PFK1 and LDHA; assay: Expression of key glycolytic genes after treatment; conditions: PS48 treatment
Experimental: as §1

Compound | effect on reprogramming, TRA-1-81 positive colonies (in words) [1] | reprogramming of NHEKs, TRA-1-81 positive colonies (in words) [2] | glycolysis, lactate production in the medium (in words) (NHEKs) | further results
O=[N+]([O-])c1ccc(O)c([N+](=O)[O-])c1 [2,4-dinitrophenol] | enhance reprogramming |  |  | 
O=CC[C@@H](O)[C@H](O)[C@H](O)CO [2-Deoxy-D-glucose] |  | inhibited reprogramming process | inhibited glycolysis | 
O=P(O)(O)OC[C@H]1O[C@@](CO)(OP(=O)(O)O)[C@@H](O)[C@@H]1O [Fructose 2,6-bisphosphate] | corresponding consistent effects on reprogramming |  |  | 
O=C(O)CNC(=O)C(=O)O [N-oxalylglycine] | enhance reprogramming |  |  | 
CCCC(=O)[O-].[Na+] [NaB, sodium butyrate] |  |  |  | generation of iPSCs under OK condition (in words) ([2]; NHEKs, OCT4 + KLF4, 0.25 mM NaB compared with 0.5 mM VPA): much more reliable and efficient than the previously reported 0.5 mM VPA
O=C(O)/C=C(/CCc1ccc(Cl)cc1)c1ccccc1 [PS48, (Z)-5-(4-Chlorophenyl)-3-phenylpent-2-enoic acid] |  | enhanced reprogramming | facilitated/activated a metabolic switch to glycolysis | expression of key glycolytic genes GLUT1, HK2, PFK1 and LDHA (in words) [3]: up-regulated; enhancement of reprogramming efficiency ([2]; NHEKs transduced with OK (OCT4 + KLF4), treated with 0.5 μM PD0325901 and 0.5 μM A-83-01): about fifteen
O=c1c(O)c(-c2ccc(O)c(O)c2)oc2cc(O)cc(O)c12 [Quercetin, 3,3′,4′,5,7-pentahydroxyflavone] | corresponding consistent effects on reprogramming |  |  | 
CN[C@@H]1C[C@H]2O[C@@](C)([C@@H]1OC)n1c3ccccc3c3c4c(c5c6ccccc6n2c5c31)C(=O)N[C@@H]4O [UCN-01] |  | inhibited reprogramming process | inhibited glycolysis | 
O=C(O)C(=O)O [oxalate] | inhibit reprogramming |  |  | 
